Measured values taken from PubChem BioAssay AID1996.
Values after ≈ are worked out from the molar mass of the structure shown.

Details: buffer; pH 7.4; 200.0 µM

Row | solubility kinetic | Compound
1 | > 45.7 µg/mL | O=C(NC1CCC1)C1CCC(=O)N(Cc2cccc(F)c2)C1 (stereo not given)
2 | 3.7 µg/mL (≈ 12.1 µM) | NC(=O)NC(=O)CN1c2cccc3cccc(c23)S1(=O)=O
3 | > 55.5 µg/mL | CCOc1ncccc1C(=O)OCC(=O)c1ccc(Br)s1
4 | > 62.3 µg/mL | Cc1ccccc1C(=O)OCC(=O)Nc1cccc(S(=O)(=O)NC2=NCCC2)c1
5 | 1.2 µg/mL (≈ 4.22 µM) | O=[N+]([O-])c1cccc(-c2nc3ccc([N+](=O)[O-])cc3[nH]2)c1
6 | 44.2 µg/mL (≈ 129 µM) | CC(C)(C)c1ccc(-c2noc(CCC(=O)N3CCOCC3)n2)cc1
7 | > 48.2 µg/mL | COc1cc(C(=O)OCC(=O)N2CCCC2)cc2c1OCCO2
8 | 2 µg/mL (≈ 6.29 µM) | O=C(COc1ccccc1Cl)Nc1ccc2[nH]c(=O)[nH]c2c1
9 | > 45.5 µg/mL | CCCNC(=O)CN1C(=O)NC(CCc2ccccc2)C1=O (stereo not given)
10 | > 54.2 µg/mL | CCCc1cc(=O)[nH]c(SCC(=O)NCc2ccc3c(c2)OCO3)n1
11 | 28.1 µg/mL (≈ 113 µM) | Cc1cccc(S(=O)(=O)Nc2ccncc2)c1
12 | > 42.4 µg/mL | CCN(CC(=O)NC1CC1)S(=O)(=O)c1ccccc1
13 | < 0.4 µg/mL | O=C(Nc1ccc(NC(=O)c2ccccc2F)cc1)c1ccccc1F
14 | > 49.6 µg/mL | COc1ccc2nc(C)cc(SCC(=O)N3CCCCC3)c2c1
15 | 26.4 µg/mL (≈ 106 µM) | CC(C)Nc1c([N+](=O)[O-])c(=O)oc2ccccc12
16 | > 34.2 µg/mL | Cn1ncc(Cl)c1C(=O)NC1CCCC1
17 | > 50 µg/mL | Cn1cnnc1SCC(=O)Nc1ccc(N2CCOCC2)cc1
18 | < 0.4 µg/mL | CSc1nsc(SC)c1C(=O)Nc1ccc(C(C)(C)C)cc1
19 | > 47.8 µg/mL | CC(=O)Nc1ccccc1OC(C)C(=O)N1CC(C)CC(C)C1 (stereo not given)
20 | 6.3 µg/mL (≈ 17.2 µM) | COc1ccc(C(=O)NCCSCc2cccc(Cl)c2)cc1OC

Row | solubility kinetic | Compound
21 | 43.1 µg/mL (≈ 113 µM) | CC1(C)CC(NC(=O)N2c3ccccc3Sc3ccccc32)CC(C)(C)N1
22 | > 50 µg/mL | CCNC(=O)CC1C(=O)N(c2ccc(C)cc2)C(=O)N1CCOC (stereo not given)
23 | 28.3 µg/mL (≈ 133 µM) | Nc1ccc(OCCc2ccccc2)cc1
24 | > 45.2 µg/mL | Cc1nccn1CC(O)COc1ccc(Cl)cc1Cl (stereo not given)
25 | > 50.2 µg/mL | COc1ccccc1-n1cnnc1SCC(=O)N1CCOCC1
26 | 5 µg/mL (≈ 13.8 µM) | O=C(Nc1cccc2ncccc12)c1cc(Br)ccc1Cl
27 | 19.8 µg/mL (≈ 61.4 µM) | O=C(c1ccc(Br)s1)N1CCc2ccccc2C1
28 | < 0.6 µg/mL | CCOc1cc2c3c(c1)C(C)=CC(C)(C)N3C(=O)C2=O
29 | 40.2 µg/mL (≈ 147 µM) | N#Cc1c(-c2ccccc2)nc(-c2cccnc2)[nH]c1=O
30 | 15.1 µg/mL (≈ 54.4 µM) | CCN(CC)C(=O)CSc1nc(C)cc(C)c1C#N
31 | > 55.7 µg/mL | CCOC(=O)Cc1csc(NS(=O)(=O)c2ccc([N+](=O)[O-])cc2)n1
32 | > 39.2 µg/mL | O=C(Cn1ccc([N+](=O)[O-])n1)NCc1cccnc1
33 | 2.5 µg/mL (≈ 8.3 µM) | COc1ccccc1NC(=O)COc1ccc2c(c1)OCO2
34 | > 40.7 µg/mL | CCCn1nc(C(=O)NC2CC2)c2ccccc2c1=O
35 | > 49 µg/mL | NC(=O)COC(=O)c1cccc(S(=O)(=O)N2CCCCC2)c1
36 | > 50.6 µg/mL | CC[C@H](C)[C@H](NC(N)=O)C(=O)NCCc1ccc(OC)c(OC)c1
37 | 8.6 µg/mL (≈ 30.4 µM) | O=S(=O)(Nc1cccc2ccccc12)c1ccccc1
38 | 5.2 µg/mL (≈ 18.4 µM) | Brc1cccc2sc(N3CCCC3)nc12
39 | > 42.4 µg/mL | CN1C(=O)N(c2ccc(Cl)cc2)C(C)(O)CC1(C)C (stereo not given)
40 | 39.5 µg/mL (≈ 114 µM) | CN1CCC(N(C)C(=O)CNC(=O)c2ccc(C(C)(C)C)cc2)CC1

Row | solubility kinetic | Compound
41 | < 0.4 µg/mL | COc1cc(/C=C/c2noc(-c3ccccc3O)n2)ccc1OC(C)=O
42 | 37.4 µg/mL (≈ 143 µM) | CCC(C)c1ccc(NC(=O)N2CCOCC2)cc1 (stereo not given)
43 | > 47.9 µg/mL | CCOC(=O)C1(Cc2cccc(F)c2)CCN(CC2CC2)CC1
44 | > 41.4 µg/mL | O=C(O)CC(NCc1ccco1)C(=O)OCCCl (stereo not given)
45 | 10.3 µg/mL (≈ 30.7 µM) | COc1ccc(C(=O)COC(=O)c2ccc(Cl)nc2)cc1OC
46 | 31.5 µg/mL (≈ 118 µM) | Cc1ccc(C2N(C)C(=O)c3ccccc3N2C)cc1 (stereo not given)
47 | > 49.4 µg/mL | O=C(NCc1ccco1)C1CC(O)CN1C(=O)Nc1ccccc1 (stereo not given)
48 | 43.9 µg/mL (≈ 133 µM) | O=C(c1cccc(NS(=O)(=O)c2ccccc2)c1)N1CCCC1
49 | 24.9 µg/mL (≈ 79.2 µM) | CN(CCC#N)C(=O)c1cc2c(s1)-c1ccccc1SC2
50 | < 0.6 µg/mL | CCOC(=O)c1c(C)noc1-c1ccc(Br)o1
51 | 1.2 µg/mL (≈ 4.59 µM) | Cc1ccccc1NC(=O)c1ccc2ccccc2c1
52 | 33.4 µg/mL (≈ 100 µM) | CC(C)c1cccc(C(C)C)c1OCCCCCN1CCOCC1
53 | > 51.8 µg/mL | CSc1ncccc1C(=O)NCC(c1ccco1)N1CCCCC1 (stereo not given)
54 | 43.9 µg/mL (≈ 129 µM) | COc1cc(C(C)=O)ccc1OCC(=O)N1CCc2ccccc2C1
55 | 48.2 µg/mL (≈ 143 µM) | O=C(CN1C(=O)c2ccccc2S1(=O)=O)c1ccc(F)c(F)c1
56 | 6.1 µg/mL (≈ 26.4 µM) | COC(=O)c1sccc1NC(=S)OC
57 | 1.7 µg/mL (≈ 5.79 µM) | O=[N+]([O-])c1ccc(NCCOc2ccccc2Cl)nc1
58 | > 46.4 µg/mL | COc1cc(N(C)C)c([N+](=O)[O-])cc1C(=O)N1CCOCC1
59 | < 0.3 µg/mL | CC(=O)c1ccc(NC(=S)NC(=O)/C=C/c2ccccc2)cc1
60 | > 40.6 µg/mL | NCC(c1ccccc1Cl)c1c[nH]c2ccccc12 (stereo not given)
